Measurements from the supplement of paper PMC10307832.

Assays:
Experiment in all cases: relative viability (nuclei count vs DMSO), 5 days (fraction); higher = more cells survive
Sulindac + AZD7762 = compound: CC1=C(CC(=O)O)c2cc(F)ccc2/C1=C\c1ccc([S+](C)[O-])cc1 [Sulindac] + NC(=O)Nc1cc(-c2cccc(F)c2)sc1C(=O)N[C@H]1CCCNC1 [AZD7762] (partner 0.2 µM)
Outline: (§1)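 Relative viability equals treated-well nuclei counts divided by vehicle-well nuclei counts. Counts came from 4× images of lung cancer cell lines grown in 1536-well plates for 5 days after pin-tool dosing on the day after seeding. Dosing used one drug alone or a fixed anchor-drug dose plus five library-drug doses (not always all listed) in √10 steps, and values are medians of duplicate plates.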

Sulindac + Vorinostat = compound: CC1=C(CC(=O)O)c2cc(F)ccc2/C1=C\c1ccc([S+](C)[O-])cc1 [Sulindac] + O=C(CCCCCCC(=O)Nc1ccccc1)NO [Vorinostat] (partner 1 µM)
Outline: as §1

Sulindac + Olaparib = compound: CC1=C(CC(=O)O)c2cc(F)ccc2/C1=C\c1ccc([S+](C)[O-])cc1 [Sulindac] + O=C(c1cc(Cc2n[nH]c(=O)c3ccccc23)ccc1F)N1CCN(C(=O)C2CC2)CC1 [Olaparib] (partner 8 µM)
Outline: as §1

[1] = compound: CN[C@@H]1C[C@H]2O[C@@](C)([C@@H]1OC)n1c3ccccc3c3c4c(c5c6ccccc6n2c5c31)C(=O)NC4 [Staurosporine] + O=C(CCCCCCC(=O)Nc1ccccc1)NO [Vorinostat] (partner 1 µM)
Outline: as §1

Row | Cell Line | relative viability (Sulindac + AZD7762; first compound 0.08 µM) | relative viability (Sulindac + AZD7762; first compound 0.253 µM) | relative viability (Sulindac + AZD7762; first compound 0.8 µM) | relative viability (Sulindac + AZD7762; first compound 2.53 µM) | relative viability (Sulindac + AZD7762; first compound 8 µM) | relative viability (Sulindac + Vorinostat; first compound 0.08 µM) | relative viability (Sulindac + Vorinostat; first compound 0.253 µM) | relative viability (Sulindac + Vorinostat; first compound 0.8 µM) | relative viability (Sulindac + Vorinostat; first compound 2.53 µM) | relative viability (Sulindac + Vorinostat; first compound 8 µM) | relative viability (Sulindac + Olaparib; first compound 0.08 µM) | relative viability (Sulindac + Olaparib; first compound 0.253 µM) | relative viability (Sulindac + Olaparib; first compound 0.8 µM) | relative viability (Sulindac + Olaparib; first compound 2.53 µM) | relative viability (Sulindac + Olaparib; first compound 8 µM) | relative viability ([1]; first compound 0.005 µM) | relative viability ([1]; first compound 0.01581 µM) | relative viability ([1]; first compound 0.05 µM) | relative viability ([1]; first compound 0.1581 µM) | relative viability ([1]; first compound 0.5 µM)
1 | HOP-62 | 0.577 | 0.565 | 0.556 | 0.717 | 0.953 | 0.826 | 0.88 | 0.526 | 0.598 | 0.796 | 0.3 | 0.677 | 0.351 | 0.266 | 0.545 | 0.168 | 0.0742 | 0.1 | 0.0731 | 0.0573
2 | HCC-366 | 0.284 | 0.257 | – | 0.359 | 0.265 | 0.365 | 0.333 | – | 0.351 | 0.416 | 0.338 | 0.356 | – | 0.399 | 0.508 | 0.331 | – | 0.0353 | 0.0261 | 0.0187
3 | NCI-H2405 | 0.86 | 0.811 | 0.642 | 0.691 | 0.995 | 1.08 | 1.04 | 0.923 | 0.971 | 1.28 | 0.93 | 0.851 | 0.86 | 0.831 | 1.08 | 0.199 | 0.147 | 0.131 | 0.0894 | 0.0973
4 | SW 900 | 0.538 | 0.677 | – | – | 0.643 | 0.553 | 0.47 | – | – | 0.578 | 0.968 | 0.965 | – | – | 1.06 | 0.294 | 0.15 | 0.171 | 0.146 | 0.0929
5 | LXF-289 | 1.15 | 1.15 | 0.987 | 1.21 | 1.24 | 0.867 | 0.797 | 0.636 | 0.83 | 0.797 | 1.24 | 1.18 | 0.873 | 1.18 | 1.19 | 0.73 | 0.249 | 0.29 | 0.0781 | 0.0815
6 | NCI-H1793 | 0.41 | 0.537 | – | 0.441 | 0.33 | 0.726 | 0.716 | – | 0.637 | 0.68 | 0.963 | 0.934 | – | 0.973 | 1.08 | 0.635 | – | 0.164 | 0.11 | 0.0792
7 | NCI-H1734 | 0.646 | 0.587 | 0.519 | 0.621 | 0.73 | 0.844 | 0.826 | 0.664 | 0.78 | 1.05 | 0.634 | 0.67 | 0.609 | 0.649 | 0.674 | 0.751 | 0.236 | – | 0.117 | 0.107
8 | LU99A | 0.324 | 0.467 | 0.433 | 0.327 | 0.404 | 0.499 | 0.465 | 0.454 | 0.428 | 0.551 | 0.294 | 0.231 | 0.259 | 0.241 | 0.311 | 0.452 | 0.16 | 0.173 | 0.128 | 0.107
9 | RERF-LC-KJ | 1.41 | 1.18 | 0.632 | 0.993 | 1.05 | 0.687 | 0.823 | 0.597 | 0.78 | 0.734 | 0.949 | 1.01 | 0.971 | 0.861 | 1.07 | 0.599 | 0.403 | 0.302 | 0.197 | 0.224
